Columns and labels:
[1] = target: T1, Solute carrier organic anion transporter family member 1A1 (Rattus norvegicus, UniProt P46720); experiment: TP_TRANSPORTER: inhibition of Ouabain uptake (Ouabain: 100 uM, Estrone-3-glucuronide: 100 uM) in Xenopus laevis oocytes; format: functional, cell-based, Oocyte; parameters: scale not given: the % may be the effect or the level left; conditions: probe Ouabain (100 uM), read-out: Activity
T1 sequence (P46720 whole entry): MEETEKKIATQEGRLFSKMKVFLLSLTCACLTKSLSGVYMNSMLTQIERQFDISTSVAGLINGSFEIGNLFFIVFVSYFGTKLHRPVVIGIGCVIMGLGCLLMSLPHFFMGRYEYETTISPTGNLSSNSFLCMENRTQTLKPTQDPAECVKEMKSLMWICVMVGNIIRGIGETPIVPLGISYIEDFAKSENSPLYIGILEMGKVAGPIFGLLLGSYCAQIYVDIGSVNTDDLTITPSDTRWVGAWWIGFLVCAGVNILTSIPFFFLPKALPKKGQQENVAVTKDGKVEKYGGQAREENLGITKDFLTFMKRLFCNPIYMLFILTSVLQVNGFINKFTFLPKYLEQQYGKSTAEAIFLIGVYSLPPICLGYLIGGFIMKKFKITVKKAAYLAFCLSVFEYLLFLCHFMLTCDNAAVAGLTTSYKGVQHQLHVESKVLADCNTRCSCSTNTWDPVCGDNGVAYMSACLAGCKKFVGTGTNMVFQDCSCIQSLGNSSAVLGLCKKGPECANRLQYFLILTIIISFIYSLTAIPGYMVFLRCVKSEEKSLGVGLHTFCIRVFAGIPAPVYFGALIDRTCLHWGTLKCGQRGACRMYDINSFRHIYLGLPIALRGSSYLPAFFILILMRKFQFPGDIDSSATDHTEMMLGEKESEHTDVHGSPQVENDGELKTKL

[2] = target: T1, Solute carrier organic anion transporter family member 1A1; experiment: TP_TRANSPORTER: inhibition of Ouabain uptake (Ouabain: 100 uM, Estradiol-3-glucuronide: 100 uM) in Xenopus laevis oocytes; format: functional, cell-based, Oocyte; parameters: scale not given: the % may be the effect or the level left; conditions: probe Ouabain (100 uM), read-out: Activity
[3] = target: T1, Solute carrier organic anion transporter family member 1A1; experiment: TP_TRANSPORTER: inhibition of Ouabain uptake (Ouabain: 100 uM, Aldosterone: 100 uM) in Xenopus laevis oocytes; format: functional, cell-based; parameters: scale not given: the % may be the effect or the level left; conditions: oocyte
[4] = target: T1, Solute carrier organic anion transporter family member 1A1; experiment: TP_TRANSPORTER: inhibition of Ouabain uptake (Ouabain: 100 uM, Corticosterone: 100 uM) in Xenopus laevis oocytes; format: functional, cell-based; parameters: scale not given: the % may be the effect or the level left; conditions: oocyte
[5] = target: T1, Solute carrier organic anion transporter family member 1A1; experiment: TP_TRANSPORTER: inhibition of Ouabain uptake (Ouabain: 100 uM, Dexamethasone: 100 uM) in Xenopus laevis oocytes; format: functional, cell-based, Oocyte; parameters: scale not given: the % may be the effect or the level left; conditions: probe Ouabain (100 uM), read-out: Activity
[6] = target: T1, Solute carrier organic anion transporter family member 1A1; experiment: (§1) TP_TRANSPORTER: uptake in Xenopus laevis oocytes; format: functional, cell-based, Oocyte
[7] = target: T1, Solute carrier organic anion transporter family member 1A1; experiment: TP_TRANSPORTER: inhibition of Ouabain uptake (Ouabain: 100 uM, Digitoxin: 100 uM) in Xenopus laevis oocytes; format: functional, cell-based, Oocyte; parameters: scale not given: the % may be the effect or the level left; conditions: probe Ouabain (100 uM), read-out: Activity
[8] = target: T1, Solute carrier organic anion transporter family member 1A1; experiment: TP_TRANSPORTER: inhibition of Ouabain uptake (Ouabain: 100 uM, Digoxigenin: 100 uM) in Xenopus laevis oocytes; format: functional, cell-based, Oocyte; parameters: scale not given: the % may be the effect or the level left; conditions: probe Ouabain (100 uM), read-out: Activity
[9] = target: T1, Solute carrier organic anion transporter family member 1A1; experiment: TP_TRANSPORTER: inhibition of Ouabain uptake (Ouabain: 100 uM, E217betaG: 100 uM) in Xenopus laevis oocytes; format: functional, cell-based, Oocyte; parameters: scale not given: the % may be the effect or the level left; conditions: probe Ouabain (100 uM), read-out: Activity
[10] = target: T1, Solute carrier organic anion transporter family member 1A1; experiment: TP_TRANSPORTER: inhibition of Ouabain uptake (Ouabain: 100 uM, beta-Estradiol: 100 uM) in Xenopus laevis oocytes; format: functional, cell-based, Oocyte; parameters: scale not given: the % may be the effect or the level left; conditions: probe Ouabain (100 uM), read-out: Activity
[11] = target: T1, Solute carrier organic anion transporter family member 1A1; experiment: TP_TRANSPORTER: inhibition of Ouabain uptake (Ouabain: 100 uM, E1S: 100 uM) in Xenopus laevis oocytes; format: functional, cell-based; parameters: scale not given: the % may be the effect or the level left; conditions: oocyte
[12] = target: T1, Solute carrier organic anion transporter family member 1A1; experiment: TP_TRANSPORTER: inhibition of Ouabain uptake (Ouabain: 100 uM, Cortisol: 100 uM) in Xenopus laevis oocytes; format: functional, cell-based, Oocyte; parameters: scale not given: the % may be the effect or the level left; conditions: probe Ouabain (100 uM), read-out: Activity
[13] = target: T1, Solute carrier organic anion transporter family member 1A1; experiment: TP_TRANSPORTER: inhibition of Ouabain uptake (Ouabain: 100 uM, ICG: 100 uM) in Xenopus laevis oocytes; format: functional, cell-based; parameters: scale not given: the % may be the effect or the level left; conditions: oocyte
[14] = target: T1, Solute carrier organic anion transporter family member 1A1; experiment: TP_TRANSPORTER: inhibition of Ouabain uptake (Ouabain: 100 uM, Prednisolone: 100 uM) in Xenopus laevis oocytes; format: functional, cell-based, Oocyte; parameters: scale not given: the % may be the effect or the level left; conditions: probe Ouabain (100 uM), read-out: Activity
[15] = target: T1, Solute carrier organic anion transporter family member 1A1; experiment: TP_TRANSPORTER: inhibition of Ouabain uptake (Ouabain: 100 uM, Prednisone: 100 uM) in Xenopus laevis oocytes; format: functional, cell-based; parameters: scale not given: the % may be the effect or the level left; conditions: oocyte
[16] = target: T1, Solute carrier organic anion transporter family member 1A1; experiment: TP_TRANSPORTER: inhibition of Ouabain uptake (Ouabain: 100 uM, Rose bengal: 100 uM) in Xenopus laevis oocytes; format: functional, cell-based; parameters: scale not given: the % may be the effect or the level left; conditions: oocyte
[17] = target: T1, Solute carrier organic anion transporter family member 1A1; experiment: TP_TRANSPORTER: inhibition of Ouabain uptake (Ouabain: 100 uM, BSP: 100 uM) in Xenopus laevis oocytes; format: functional, cell-based, Oocyte; parameters: scale not given: the % may be the effect or the level left; conditions: probe Ouabain (100 uM), read-out: Activity
[18] = target: T1, Solute carrier organic anion transporter family member 1A1; experiment: TP_TRANSPORTER: inhibition of Ouabain uptake (Ouabain: 100 uM, Testosterone: 100 uM) in Xenopus laevis oocytes; format: functional, cell-based, Oocyte; parameters: scale not given: the % may be the effect or the level left; conditions: probe Ouabain (100 uM), read-out: Activity
[19] = substrate: C[C@]12CCC(=O)C=C1CC[C@@H]1[C@@H]2[C@@H](O)C[C@@]2(C)[C@H]1CC[C@]2(O)C(=O)CO; experiment: as §1; format: functional, cell-based, Oocyte
[20] = substrate: C[C@]12CCC(=O)C=C1CC[C@@H]1[C@@H]2[C@@H](O)C[C@]2(C=O)[C@@H](C(=O)CO)CC[C@@H]12; experiment: as §1; format: functional, cell-based, Oocyte
[21] = substrate: C[C@]12CC[C@@H]3c4ccc(O)cc4CC[C@H]3[C@@H]1CC[C@@H]2O[C@@H]1O[C@H](C(=O)O)[C@@H](O)[C@H](O)[C@H]1O; experiment: as §1; format: functional, cell-based, Oocyte
[22] = substrate: C[C@]12CC[C@@H]3c4ccc(OS(=O)(=O)O)cc4CC[C@H]3[C@@H]1CCC2=O; experiment: as §1; format: functional, cell-based, Oocyte

Molecule: C[C@]12CC[C@@H]3c4ccc(O[C@@H]5O[C@H](C(=O)O)[C@@H](O)[C@H](O)[C@H]5O)cc4CC[C@H]3[C@@H]1CCC2=O
- activity at 100 µM [1]: 24%

Molecule: C[C@]12CC[C@@H]3c4ccc(O[C@@H]5O[C@H](C(=O)O)[C@@H](O)[C@H](O)[C@H]5O)cc4CC[C@H]3[C@@H]1CC[C@@H]2O
- activity at 100 µM [2]: 27%

Molecule: C[C@]12CCC(=O)C=C1CC[C@@H]1[C@@H]2[C@@H](O)C[C@]2(C=O)[C@@H](C(=O)CO)CC[C@@H]12 [ALDOSTERONE]
- Activity [3]: 10%

Molecule: C[C@]12C[C@H](O)[C@H]3[C@@H](CCC4=CC(=O)CC[C@@]43C)[C@@H]1CC[C@@H]2C(=O)CO [CORTICOSTERONE]
- Activity [4]: 15%

Molecule: C[C@@H]1C[C@H]2[C@@H]3CCC4=CC(=O)C=C[C@]4(C)[C@@]3(F)[C@@H](O)C[C@]2(C)[C@@]1(O)C(=O)CO [DEXAMETHASONE]
- activity at 100 µM [5]: 26%
- Activity ([6]; oocyte): substrate [+]

Molecule: C[C@H]1O[C@@H](O[C@H]2[C@@H](O)C[C@H](O[C@H]3[C@@H](O)C[C@H](O[C@H]4CC[C@@]5(C)[C@H](CC[C@@H]6[C@@H]5CC[C@]5(C)[C@@H](C7=CC(=O)OC7)CC[C@]65O)C4)O[C@@H]3C)O[C@@H]2C)C[C@H](O)[C@@H]1O [DIGITOXIN]
- activity at 100 µM [7]: 29%

Molecule: C[C@]12CC[C@H](O)C[C@H]1CC[C@@H]1[C@@H]2C[C@@H](O)[C@]2(C)[C@@H](C3=CC(=O)OC3)CC[C@]12O [DIGOXIGENIN]
- activity at 100 µM [8]: 19%

Molecule: C[C@]12CC[C@@H]3c4ccc(O)cc4CC[C@H]3[C@@H]1CC[C@@H]2O[C@@H]1O[C@H](C(=O)O)[C@@H](O)[C@H](O)[C@H]1O [ESTRADIOL 17B GLUCURONIDE]
- activity at 100 µM [9]: 16%

Molecule: C[C@]12CC[C@@H]3c4ccc(O)cc4CC[C@H]3[C@@H]1CC[C@@H]2O [ESTRADIOL]
- activity at 100 µM [10]: 40%

Molecule: C[C@]12CC[C@@H]3c4ccc(OS(=O)(=O)O)cc4CC[C@H]3[C@@H]1CCC2=O [ESTRONE SULFURIC ACID]
- Activity [11]: 10%

Molecule: C[C@]12CCC(=O)C=C1CC[C@@H]1[C@@H]2[C@@H](O)C[C@@]2(C)[C@H]1CC[C@]2(O)C(=O)CO [HYDROCORTISONE]
- activity at 100 µM [12]: 19%

Molecule: CC1(C)C(/C=C/C=C/C=C/C=C2/N(CCCCS(=O)(=O)[O-])c3ccc4ccccc4c3C2(C)C)=[N+](CCCCS(=O)(=O)[O-])c2ccc3ccccc3c21.[Na+] [INDOCYANINE GREEN]
- Activity [13]: 6%

Molecule: C[C@@H]1O[C@@H](O[C@H]2C[C@@H](O)[C@]3(CO)[C@H]4[C@H](O)C[C@]5(C)[C@@H](C6=CC(=O)OC6)CC[C@]5(O)[C@@H]4CC[C@]3(O)C2)[C@H](O)[C@H](O)[C@H]1O [OUABAIN]
- Km ([6]; Xenopus laevis oocytes): 1700 µM

Molecule: C[C@]12C=CC(=O)C=C1CC[C@@H]1[C@@H]2[C@@H](O)C[C@@]2(C)[C@H]1CC[C@]2(O)C(=O)CO [PREDNISOLONE]
- activity at 100 µM [14]: 40%

Molecule: C[C@]12C=CC(=O)C=C1CC[C@@H]1[C@@H]2C(=O)C[C@@]2(C)[C@H]1CC[C@]2(O)C(=O)CO [PREDNISONE]
- Activity [15]: 34%

Molecule: O=C([O-])c1c(Cl)c(Cl)c(Cl)c(Cl)c1-c1c2cc(I)c(=O)c(I)c-2oc2c(I)c([O-])c(I)cc12.[Na+].[Na+] [ROSE BENGAL SODIUM]
- Activity [16]: 4%

Molecule: O=C1OC(c2ccc(O)c(S(=O)(=O)O)c2)(c2ccc(O)c(S(=O)(=O)O)c2)c2c(Br)c(Br)c(Br)c(Br)c21 [SULFOBROMOPHTHALEIN SODIUM]
- activity at 100 µM [17]: 6%

Molecule: C[C@]12CC[C@H]3[C@@H](CCC4=CC(=O)CC[C@@]43C)[C@@H]1CC[C@@H]2O [TESTOSTERONE]
- activity at 100 µM [18]: 16%

B1: Solute carrier organic anion transporter family member 1A1 (Rattus norvegicus) (protein)
chain: T1 sequence (P46720 whole entry)
- Km [19]: 13 µM
- Km [20]: 0.015 µM
- Km [21]: 3 µM
- Km [22]: 4.5 µM
